From US20240300980A1, “HETEROCYCLIC COMPOUNDS AS KRAS INHIBITOR, AND PREPARATION THEREFOR AND USE THEREOF IN TREATMENT” (SHANGHAI KECHOW PHARMA, INC., priority 2021, published 2024) come the findings set out here.

pIC50: −log10 of the molar value. Some results are limits rather than exact numbers.

For this assay, the system named is AGS cells (KRAS^G12D). Briefly: Detection of cell proliferation in vitro by MTT/MTS method (cell activity experiment). The note with it: Homo sapiens, AGS, 72 h, AGS cells; MTT/MTS; 3 days of drug treatment; read-out: AGS IC50. In kind it is cell-based. Here is the method: The above cells were cultured in a complete medium containing 10% fetal bovine serum, 100 IU/mL penicillin and 100 jag/mL streptomycin, in the aseptic incubator with 95% relative humidity and 5% CO2 concentration.
2. Reagents: F12K, D-PBS, FBS, Penicillin Streptomycin, Tryple, MTT (5 mg/mL)
Appropriate amount of compound powder was weighed in a 1.5 mL centrifuge tube, then the corresponding volume of dimethyl sulfoxide (DMSO) was added to form a 20 mM reserve solution. The solution was packed separately and stored in a refrigerator at −20° C. away from light.
The cells were inoculated in a cell culture bottle, added an appropriate amount of complete medium, and cultured in a sterile incubator. When the degree of cell confluence reached more than 80%, subculture was carried out.
The adherent cells in logarithmic growth phase were digested by trypsin or the suspension cells were collected by centrifugation and counted. 90 μL cell suspension was inoculated into 96-well plate according to the cell inoculation density of 1000 cells per well, and 10 μL of 10-fold final concentration compound diluted by culture medium was added 24 hours later. Compared with the hole with the same volume of 5% DMSO as control, the final concentration of DMSO was 0.5%. After 3 days of drug treatment, the cell viability was detected by MTT. The specific methods are as follows: 10 μL MTT per well was added into the incubator for 4 hours, the supernatant was discarded and 150 μL DMSO was added to dissolve the crystal methylazan, and the absorbance of 490 nm was detected by enzyme labeling instrument, or 10 μL MITS per well was added to the incubator for 4 hours, and […] absorbance was detected directly by enzyme labeling instrument. GraphPad Prism 6 software makes dose-effect curve and calculates IC50.
For orientation: Tetrazolium assays rely on reduction of a dye to a coloured formazan, in cell work by metabolically active cells.
For orientation: pIC50 means the IC50 on a negative log10 scale, so that one unit is a factor of ten. With `C#Cc1c(F)ccc2cccc(-c3ccc4c(N5C[C@H]6CC[C@@H](C5)N6)nc(OC[C@]56CCCN5[C@@H](COC(=O)N(C)C)CC6)nc4c3)c12` [Example 155, ((3R,7aR)-7a-(((4-((1R, 5S)-3,8-diazabicyclo [3.2.1]octan-3-yl)-7-(8-ethynyl-7-fluoronaphthalen-1-yl)quinazolin-2-yl)oxy)methyl)hexahydro-1H-pyrrolizin-3-yl)methyl dimethylcarbamate], the pIC50 was 6.67.

For the molecule `Oc1cc(-c2ccc3c(N4C[C@H]5CC[C@@H](C4)C5(F)F)nc(OC[C@@]45CCCN4C[C@H](F)C5)nc3c2F)c2c(F)c(F)ccc2c1` [Example 122, 4-(4-((1R,5S)-8,8-difluoro-3-azabicyclo [3.2.1]octan-3-yl)-8-fluoro-2-(((2R,7aS)-2-fluorotetrahydro-1H-pyrrolizin-7a(5H)-yl)methoxy)quinazolin-7-yl)-5,6-difluoronaphthalen-2-ol], the pIC50 is less than 5.60.

For the molecule `CC1OCCc2cc(O)cc(C3=C(F)c4nc(OC[C@@]56CCCN5C[C@H](F)C6)nc(N5C[C@H]6CC[C@@H](C5)N6)c4C4=NCCN43)c21` (stereo partly drawn) [Example 410, 8-(10-((1R,5S)-3,8-diazabicyclo[3.2.1]octan-3-yl)-6-fluoro-8-(((2R,7aS)-2-fluorotetrahydro-1H-pyrrolizin-7a(5H)-yl)methoxy)-2,3-dihydroimidazo[1′,2′:1,2]pyrido[4,3-d]pyrimidin-5-yl)-1-methylisochroman-6-ol], the pIC50 was 7.12.

As to `Oc1cc2c(c(-c3ccc4c(N5C[C@H]6CC[C@@H](C5)N6)nc(OC[C@@]56CCCN5C[C@H](F)C6)nc4c3F)c1)C=CC2` [Example 306, 4-(4-((1R,5S)-3,8-diazabicyclo[3.2.1]octan-3-yl)-8-fluoro-2-(((2R,7aS)-2-fluorotetrahydro-1H-pyrrolizin-7a(5H)-yl)methoxy)quinazolin-7-yl)-1H-inden-6-ol], the pIC50 is 6.44.

Regarding `C#Cc1c(F)ccc2cc(O)cc(C3=C(F)c4nc(OC[C@@]56CCCN5C[C@H](F)C6)nc(N5C[C@H]6CC[C@@H](C5)N6)c4C4=NCCN43)c12` [Example 402, 4-(10-((1R,5S)-3,8-diazabicyclo[3.2.1]octan-3-yl)-6-fluoro-8-(((2R,7aS)-2-fluorotetrahydro-1H-pyrrolizin-7a(5H)-yl)methoxy)-2,3-dihydroimidazo[1′,2′:1,2]pyrido[4,3-d]pyrimidin-5-yl)-5-ethynyl-6-fluoronaphthalen-2-ol], the pIC50 is 7.25.

`CCc1cccc2cc(O)cc(-c3ncc4c(N5C[C@H]6CC[C@@H](C5)S6)nc(OC[C@@]56CCCN5C[C@H](F)C6)nc4c3F)c12` [Example 25, 4-(4-((1R,5S)-8-thia-3-azabicyclo[3.2.1]octan-3-yl)-8-fluoro-2-(((2R, 7aS)-2-fluorotetrahydro-1H-pyrrolizin-7a(5H)-yl)methoxy)pyrido[4,3-d]pyrimidin-7-yl)-5-ethylnaphthalen-2-ol]: the pIC50 was 6.54.

For `C/C=C1\C(=O)Cc2cc(O)cc(-c3ncc4c(N5C[C@H]6CC[C@@H](C5)N6)nc(OC[C@@]56CCCN5C[C@H](F)C6)nc4c3F)c21` [Example 264, (Z)-7-(4-((1R,5S)-3,8-diazabicyclo[3.2.1]octan-3-yl)-8-fluoro-2-(((2R,7aS)-2-fluorotetrahydro-1H-pyrrolizin-7a(5H)-yl)methoxy)pyrido[4,3-d]pyrimidin-7-yl)-1-ethylidene-5-hydroxy-1,3-dihydro-2H-inden-2-one], the pIC50 was less than 5.00.

As for `CC1CCCc2cc(O)cc(-c3ncc4c(N5C[C@H]6CC[C@@H](C5)N6)nc(OC[C@@]56CCCN5C[C@H](F)C6)nc4c3F)c21` (stereo partly drawn) [Example 224, 4-(4-((1R,5S)-3,8-diazabicyclo[3.2.1]octan-3-yl)-8-fluoro-2-(((2R,7aS)-2-fluorotetrahydro-1H-pyrrolizin-7a(5H)-yl)methoxy)pyrido[4,3-d]pyrimidin-7-yl)-5-methyl-5,6,7,8-tetrahydronaphthalen-2-ol], the pIC50 was 8.32.

For the molecule `Oc1cc(-c2ccc3c(N4C[C@H]5CC[C@@H](C4)N5)nc(OCC4(CN5CCCC5)CC4)nc3c2F)c2c(F)cccc2c1` [Example 102, 4-(4-((1R,5S)-3,8-diazabicyclo[3.2.1]octan-3-yl)-8-fluoro-2-((1-(pyrrolidin-1-ylmethyl)cyclopropyl)methoxy)quinazolin-7-yl)-5-fluoronaphthalen-2-ol], the pIC50 was 7.48.

Consider `Oc1cc2c(c(-c3ncc4c(N5C[C@H]6CC[C@@H](C5)N6)nc(OC[C@@]56CCCN5C[C@H](F)C6)nc4c3F)c1)C(CCF)CC2` (stereo partly drawn) [Example 259, 7-(4-((1R,5S)-3,8-diazabicyclo[3.2.1]octan-3-yl)-8-fluoro-2-(((2R,7aS)-2-fluorotetrahydro-1H-pyrrolizin-7a(5H)-yl)methoxy)pyrido[4,3-d]pyrimidin-7-yl)-1-(2-fluoroethyl)-2,3-dihydro-1H-inden-5-ol], for which the pIC50 is 5.58.

For `Cc1cc(N)nc(-c2ccc3c(N4C[C@H]5CC[C@@H](C4)N5)nc(OC[C@@]45CCCN4C[C@H](F)C5)nc3c2F)c1C1CC1` [Example 139, 6-(4-((1R,5S)-3,8-diazabicyclo[3.2.1]octan-3-yl)-8-fluoro-2-(((2R,7aS)-2-fluorotetrahydro-1H-pyrrolizin-7a(5H)-yl)methoxy)quinazolin-7-yl)-5-cyclopropyl-4-methylpyridin-2-amine], the pIC50 is less than 5.60.

For `C#Cc1c(F)ccc2cc(O)cc(-c3ccc4c(N5C[C@H]6CC[C@@H](C5)N6)nc(OC[C@]56CCCN5[C@@H](COC(=O)N(C)C)CC6)nc4n3)c12` [Example 145, ((3R,7aR)-7a-(((4-((1R, 5S)-3,8-diazabicyclo [3.2.1]octan-3-yl)-7-(8-ethynyl-7-fluoro-3-hydroxynaphthalen-1-yl)pyrido[2,3-d]pyrimidin-2-yl)oxy)methyl)hexahydro-1H-pyrrolizin-3-yl)methyl dimethylcarbamate], the negative-log IC50 (pIC50) was less than 5.60.

In the case of `C#Cc1c(F)ccc2cc(O)cc(-c3ncc4c(N5CCC(C#N)CC5)nc(OC[C@@]56CCCN5C[C@H](F)C6)nc4c3F)c12` [Example 68, 1-(7-(8-ethynyl-7-fluoro-3-hydroxynaphthalen-1-yl)-8-fluoro-2-(((2R, 7aS)-2-fluorotetrahydro-1H-pyrrolizin-7a(5H)-yl)methoxy)pyrido[4,3-d]pyrimidin-4-yl)piperidine-4-carbonitrile], the negative-log IC50 (pIC50) was 5.89.

On to `O=S1(=O)[C@@H]2CC[C@H]1CN(c1nc(OC[C@@]34CCCN3C[C@H](F)C4)nc3c(F)c(-c4cc(O)cc5cccc(F)c45)ccc13)C2` [Example 169, (1R,5S)-3-(8-fluoro-7-(8-fluoro-3-hydroxynaphthalen-1-yl)-2-(((2R,7aS)-2-fluorotetrahydro-1H-pyrrolizin-7a(5H)-yl)methoxy)quinazolin-4-yl)-8-thia-3-azabicyclo[3.2.1]octane 8,8-dioxide], for which the pIC50 was less than 5.60.

With `C#Cc1cccc2cc(O)cc(-c3ncc4c(N5CC6CCC(C5)C6F)nc(OC[C@@]56CCCN5C[C@H](F)C6)nc4c3F)c12` (stereo partly drawn) [Example 36, 5-ethynyl-4-(8-fluoro-4-((1R,5S,8R)-8-fluoro-3-azabicyclo[3.2.1]octan-3-yl)-2-(((2R,7aS)-2-fluorotetrahydro-1H-pyrrolizin-7a(5H)-yl)methoxy)pyrido[4,3-d]pyrimidin-7-yl) naphthalen-2-ol], the pIC50 is less than 5.60.

Regarding `C#Cc1c(F)ccc2cc(O)cc(-c3ncc4c(N5CCC(NC)C5)nc(OC[C@@]56CCCN5C[C@H](F)C6)nc4c3F)c12` (stereo partly drawn) [Example 58, 5-ethynyl-6-fluoro-4-(8-fluoro-2-(((2R,7aS)-2-fluorotetrahydro-1H-pyrrolizin-7a(5H)-yl)methoxy)-4-(3-(methylamino)pyrrolidin-1-yl)pyrido[4,3-d]pyrimidin-7-yl)naphthalen-2-ol], the pIC50 was less than 5.60.

On to `C#Cc1c(F)ccc2cc(O)cc(-c3ccc4c(N5CC6CCC(C5)[S+]6[O-])nc(OC[C@@]56CCCN5C[C@H](F)C6)nc4c3F)c12` (stereo partly drawn) [Example 159, (1R,5S,8R)-3-(7-(8-ethynyl-7-fluoro-3-hydroxynaphthalen-1-yl)-8-fluoro-2-(((2R,7aS)-2-fluorotetrahydro-1H-pyrrolizin-7a(5H)-yl)methoxy)quinazolin-4-yl)-8-thia-3-azabicyclo[3.2.1]octane 8-oxide], for which the pIC50 was less than 5.60.

In the case of `C#Cc1c(F)ccc2cc(O)cc(-c3cnc4c(N5C[C@H]6CC[C@@H](C5)N6)nc(OC[C@@]56CCCN5C[C@H](F)C6)nc4c3)c12` [Example 200, 4-(4-((1R,5S)-3,8-diazabicyclo[3.2.1]octan-3-yl)-2-(((2R,7aS)-2-fluorotetrahydro-1H-pyrrolizin-7a(5H)-yl)methoxy)pyrido[3,2-d]pyrimidin-7-yl)-5-ethynyl-6-fluoronaphthalen-2-ol], the pIC50 is less than 5.60.

`CCc1c(F)ccc2cc(O)cc(C3=C(F)c4nc(OC[C@@]56CCCN5C[C@H](F)C6)nc(N5C[C@H]6CC[C@@H](C5)N6)c4C4=NCCN43)c12` [Example 403, 4-(10-((1R,5S)-3,8-diazabicyclo[3.2.1]octan-3-yl)-6-fluoro-8-(((2R,7aS)-2-fluorotetrahydro-1H-pyrrolizin-7a(5H)-yl)methoxy)-2,3-dihydroimidazo[1′,2′:1,2]pyrido[4,3-d]pyrimidin-5-yl)-5-ethyl-6-fluoronaphthalen-2-ol]: the pIC50 is 7.22.
